Molecules are shown by their SMILES.

The subject of data set [1] is moderate to severe pain after third molar extractions. Description: single-dose clinical study, pain after third molar extractions (pain intensity difference). The settings on record: 1000 mg single dose, up to 24 hours post-dose; FIG. 3. It counts as in vivo, human. Here is the method:
A single-center, randomized, double-blind, placebo- and active-controlled, parallel group study was performed to evaluate the efficacy, safety and pharmacokinetic profile of a single dose of 5-Methyl-1H-pyrazole-3-carboxylic acid (4-hydroxy-phenyl)-amide (Compound 1), over a 24-hour on-site period in moderate to severe pain after third molar extractions in up to 280 male subjects was performed. Healthy male subjects, ages 18 to 45 years, were screened by medical history, vital signs, electrocardiogram (ECG), and clinical laboratory tests. Eligible subjects returned to the clinic on the day of surgery and completed baseline vital signs and clinical laboratory tests. The subjects were randomized such that one group received placebo (Group 1), one group received 1000 mg of Compound 1 (Group 2), and one group received 1000 mg acetaminophen (Group 3). All Groups received the treatment dose within up to 4.5 hours after oral surgery (third molar extraction). Pain intensity/pain relief assessments were collected at 0.25, 0.5, 0.75, 1, 1.5, 2, hourly up to 12, 16, and 24 hours post-dose and at time of first rescue medication (oral ibuprofen). […] This unexpected result makes the compounds of the present invention suitable for chronic pain and/or inflammatory indications as disclosed herein.

Data set [2] deals with carrageenan-induced paw-edema. Description: rat carrageenan-induced paw-edema model. It counts as in vivo. Here is the method: 5-Methyl-1H-pyrazole-3-carboxylic acid (4-hydroxy-phenyl)-amide (Compound 1) was tested in the rat carrageenan paw-edema model. The rat carrageenan model is a preclinical model of inflammation and anti-inflammatory efficacy. Generally, animals are injected with carrageenan in one hind footpad, usually, half an hour or an hour after they are treated with the test compound while the other footpad is injected with saline as a control. The measurement of paw volume/thickness is then performed at specified time points. The objective of this study was to evaluate the effect of 5-Methyl-1H-pyrazole-3-carboxylic acid (4-hydroxy-phenyl)-amide (Compound 1) on paw edema in rat induced by intra-plantar injection of i-Carrageenan into the left hind paw. [table] On Day 1, carrageenan (1%; 100 uL) was injected subcutaneously into the plantar aspect of the left hindpaw of rats from all groups. Carrageenan injection was performed in conscious rats by restraining with hand and injection was done in the middle of the plantar surface area. The carrageenan solution was vortexed/stirred before each injection. • Route of Administration Oral gavage (PO) • Dosing Regimen: Single dose on Day 1, 1 h before Carrageenan injection. • Method: The day of dosing was designated as Day 1. The animals were not sedated. The volume for each dose was administered over one injection based on the body weight. Paw volume (left hind paw) was measured before carrageenan injection (baseline) and then at 1, 3, 6 and 8 hours (+/−2 minutes) after carrageenan injection (on Day 1). Measurements will be done using a digital plethysmometer as below: In brief, the Plethysmometer is a volume meter, designed for accurate measurements of inflammation-induced swelling. It consists of a water filled cell into which the paw along with the ankle joint is dipped. A transducer records the differences in water level caused by volume displacement and provides LCD readout of the exact volume gain due to swelling. Limb volumes were recorded onto a data sheet as they were measured. One trial per animal were recorded for each time point. […]

A further data set concerns rat formalin (1%) model. Description: rat formalin (1%) test. It counts as in vivo. As to conditions: 300 mg/kg, oral, 1 hr pretreatment; 1% formalin intraplantar; FIG. 1. Here is the method:
5-Methyl-1H-pyrazole-3-carboxylic acid (4-hydroxy-phenyl)-amide (Compound 1) was tested in the rat formalin (1%) model. The rat formalin test is a preclinical model of human painful conditions.
The formalin test in rat (or mice) is a valid and reliable model of nociception (sensation of pain) and is sensitive for various classes of analgesic drugs. Formalin is a solution of formaldehyde in water. The subcutaneous injection of dilute formalin induces pain in humans and nociceptive (presumptive of pain) behaviors in animals. Since it is painful when it is injected in humans, it is used as an animal model that is considered translational to human pain. […]
In the formalin model, pain response scoring is determined by recording the pain-like behaviors per unit of time including licking, flinching, or raising or shaking of the injected paw. […]
For all Groups, animals were acclimated to the observation chamber for about 15 minutes immediately prior to formalin injection. All animals received an intraplantar subcutaneous injection of 50 μL of 1% formalin into the left hind paw and were then be placed in the observation chamber immediately and formalin-evoked spontaneous nociceptive behaviors in the rats was continuously recorded for 0-60 min using a commercial camcorder. […]

A further data set relates to neuropathic pain. Description: 12 week study in subjects with neuropathic pain. The data set is classed as in vivo, human. The settings on record: arms including 1000 and 2000 mg/day. From the text:
Subjects are diagnosed with neuropathic pain (chronic and ongoing for more than 3 months in contrast to an acute injury of nerve or nervous system).
In case of low back pain (mixed pain) a possible, probable or definite neuropathic pain component can be diagnosed via screening tools at screening/baseline visits, e.g. PAIN DETECT, LANSS, DN-4).
A 12 week study is designed to compare 5-Methyl-1H-pyrazole-3-carboxylic acid (4-hydroxy-phenyl)-amide (Compound 1) to placebo and to a standard (pregabalin).
There are 2-3 dosing arms for Compound 1 (including 1000 and 2000 mg/day).

The test system of data set [3] is mechanical allodynia after severe spinal cord contusion injury. Description: mechanical allodynia after severe spinal cord contusion injury (von Frey, Up-Down). The data set is classed as in vivo, rat. The settings on record: 10 mg/kg/day by gavage for 7 days; day 28 post surgery. Here is the method: 5-Methyl-1H-pyrazole-3-carboxylic acid (4-hydroxy-phenyl)-amide (Compound 1) treatment is tested in the suppression of the development of mechanical allodynia after severe spinal cord contusion injury in the rat. Thirteen week-old female Lewis rats (Charles River, Sulzfeld Germany) are housed under a 12:12 h dark/light regime and allowed free access to water and food. After one week of habituation the animals undergo general anesthesia with a mixture of isoflurane and air (induction: 5% isoflurane, maintenance: 2.2% isofluorane). […] The following groups were used: • Group I: SCI model+vehicle (1.5% Carboxymethylcellulose (CMC) in sterile water) by gavage for seven days • Group 2: SCI model+Compound 1 (10 mg/kg/day) in vehicle by gavage for 7 days The mechanical sensitivity response is measured as the direct pressure stimulus required for eliciting foot withdrawal in nonrestrained conditions. […] The 50% threshold force needed for paw withdrawal is calculated for both hind paws of each rat and the mean value of both hind paws is used to represent the mechanical sensitivity of this animal. The mechanical sensitivity (indicated by the 50% threshold force for paw withdrawals) is determined by the Up-Down method using von Frey filaments. […]

The nature of data set [4]: pharmacokinetic profile in third molar extraction study. The data set is classed as in vivo. The settings on record: human; plasma, 1000 mg single dose, male subjects. Here is the method: A single-center, randomized, double-blind, placebo- and active-controlled, parallel group study was performed to evaluate the efficacy, safety and pharmacokinetic profile of a single dose of 5-Methyl-1H-pyrazole-3-carboxylic acid (4-hydroxy-phenyl)-amide (Compound 1), over a 24-hour on-site period in moderate to severe pain after third molar extractions in up to 280 male subjects was performed.
The subjects were randomized such that one group received placebo (Group 1), one group received 1000 mg of Compound 1 (Group 2), and one group received 1000 mg acetaminophen (Group 3). All Groups received the treatment dose within up to 4.5 hours after oral surgery (third molar extraction).
Pain intensity/pain relief assessments were collected at 0.25, 0.5, 0.75, 1, 1.5, 2, hourly up to 12, 16, and 24 hours post-dose and at time of first rescue medication (oral ibuprofen). […] This unexpected result makes the compounds of the present invention suitable for chronic pain and/or inflammatory indications as disclosed herein.

Usually half-life stands for how long it takes for the measured level to halve. A higher half-life goes with slow loss. As for `Cc1cc(C(=O)Nc2ccc(O)cc2)n[nH]1` [Compound 1, 5-Methyl-1H-pyrazole-3-carboxylic acid (4-hydroxy-phenyl)-amide], the “Pain intensity difference from baseline (PID) score compared with 1000 mg acetaminophen” value in data set [1] is “significantly greater and longer lasting PID score”. In addition, the “carrageenan-induced paw-edema (paw volume)” value in data set [2] (300 mg/kg and 600 mg/kg, orally, single dose 1 h before carrageenan, FIG. 2A) is on record as “dose-relatedly inhibited carrageenan-induced paw-edema”. Also, the “AUC of paw volume data, 300 mg/kg dose compared to 600 mg/kg dose” value in data set [2] (FIG. 2B) is given as “statistically significant difference”. In addition, in data set [2] (single oral dose, paw-edema inhibition), the “duration of the effect of a single oral dose” value was > 8 h. In the data set with rat formalin (1%) model, the “nociceptive behaviors in Phase II of the rat formalin test” value is recorded as “inhibited nociceptive behaviors”. In the data set with neuropathic pain, the “pain intensity and signs and symptoms of neuropathy/hyperexcitability vs. placebo and standard (pregabalin)” value is “shows improvement vs. placebo and improvement or comparable effects vs. standard”. The “mechanical hypersensitivity (50% threshold force for paw withdrawal)” value in data set [3] is “mechanical hypersensitivity is reduced”. In addition, the half-life in data set [4] is ~10 h.

The values above are taken from patent US20220008390A1, “COMPOSITIONS AND METHODS FOR TREATING PAIN AND/OR INFLAMMATION” (Neumentum, Inc., priority 2020, published 2022).
